The target in test [1] is T1, glycine transporter encoded by rB20a (Rattus norvegicus, UniProt P28572).
T1 construct: expressed in transfected cells
T1 sequence (P28572 1-638): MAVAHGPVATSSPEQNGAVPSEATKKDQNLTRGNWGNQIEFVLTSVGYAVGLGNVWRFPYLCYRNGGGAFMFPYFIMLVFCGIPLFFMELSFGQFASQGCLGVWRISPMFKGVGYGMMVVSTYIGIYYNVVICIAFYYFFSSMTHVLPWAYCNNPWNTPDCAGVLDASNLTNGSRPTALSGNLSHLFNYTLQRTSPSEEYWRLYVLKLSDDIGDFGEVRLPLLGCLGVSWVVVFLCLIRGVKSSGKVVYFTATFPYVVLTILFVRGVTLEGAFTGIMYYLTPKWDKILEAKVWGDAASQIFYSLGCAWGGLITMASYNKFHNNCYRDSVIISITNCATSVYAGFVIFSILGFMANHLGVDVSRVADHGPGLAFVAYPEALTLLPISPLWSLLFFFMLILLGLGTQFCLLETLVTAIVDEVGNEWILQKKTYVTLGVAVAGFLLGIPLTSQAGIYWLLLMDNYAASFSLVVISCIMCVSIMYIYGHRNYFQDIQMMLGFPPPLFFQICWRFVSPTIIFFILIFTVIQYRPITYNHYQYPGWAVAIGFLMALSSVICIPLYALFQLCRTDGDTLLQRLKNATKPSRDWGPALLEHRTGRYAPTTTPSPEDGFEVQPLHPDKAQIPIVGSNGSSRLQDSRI
Briefly: Competition for [3H]glycine uptake by COS-7 cells transfected with rB20a. Type of test: cell-based. The note with it: for inhibition at 1000 µM / inhibition at 10 µM / inhibition at 100 µM: COS-7, 10 min, read-out: % displacement of specific [3H]glycine uptake; for % displacement of specific [3H]glycine uptake: 50 nM [3H]glycine, 10 minutes, 37° C. The protocol: (§1) These two clones were constructed into a full-length clone (designated rB20a) by ligation at their internal Nco I sites and then cloned into the eukaryotic expression vector pSVL (Pharmacia LXB Biotechnology, Piscataway, N.J.). Transient transfection of COS cells was carried out using DEAE-dextran with DMSO according to the method of Lopata et al. (1984) with minor modifications. COS cells were grown in six-well plates (37° C.,5%CO2) in high glucose Dulbecco's modified Eagle medium supplemented with 10% bovine calf serum, 100 U/ml penicillin G, and 100 μg/ml streptomycin sulfate. Cells were routinely used two days after transfection for transport studies.
(§2) Plates were incubated at 37° C. for 10 or 20 minutes, then washed rapidly 3× with HBS. Cells were solubilized with 0.05% sodium deoxycholate/0.1N NaOH (1 ml/well), 0.5 ml aliquots were removed, neutralized with 1N HCl, and radioactivity was determined by scintillation counting. Protein was quantified in an aliquot of the solubilized cells with the Bradford Reagent (Biorad, Richmond, Calif.), according to the manufacturer's directions.
Nonspecific uptake was determined with 1 mM

The target of test [2] is T1, glycine transporter encoded by rB20a. Briefly: Transport of radiolabeled substrates by COS cells transiently transfected with rB20a. Type of test: cell-based. Particulars: data not shown. The protocol: as §1, §2
Test [3] has as its system high-affinity transporter present in glial cell cultures. The note with it: read-out: Km for glycine; cited from earlier work.
Test [4] deals with high-affinity transporter in rat brain synaptosomes. The note with it: read-out: Km for glycine; cited from earlier work.

For `CNC(C)(C)C(=O)O` [α-(methylamino)isobutyric acid], in test [1], the inhibition at 1000 µM came out at 3%. Moreover, the “% displacement of specific [3H]glycine uptake” value (“% displacement of specific” for short) in test [1] (inhibitor 1 mM) was “Neither α-(methylamino) isobutyric acid (1 mM), a substrate for system A, nor L-serine (1 mM), a substrate for system ASC, significantly competed”.

For the molecule `NCCc1cnc[nH]1` [[^3 H]histamine], in test [2], the “effect of rB20a expression on uptake of the radiolabeled substrate” value (“effect of rB20a expression” for short) was “did not significantly alter”.

For `N[C@@H](CCC(=O)O)C(=O)O` [L-glutamate], the inhibition at 1000 µM in test [1] was 0%.

As for `NCCCC(=O)O` [GABA, gamma-aminobutyric acid], in test [1], the inhibition at 1000 µM was found to be 0%.

On to `NCCc1c[nH]c2ccc(O)cc12` [[^3 H]5-HT], for which the “effect of rB20a expression” value in test [2] was “did not significantly alter”.

Turning to `NCCc1c[nH]cn1` [histamine], the inhibition at 1000 µM in test [1] was determined as 0%.

As to ^3 H]glutamate, the “effect of rB20a expression” value in test [2] is “did not significantly alter”.

As to `NCCCC(=O)O` [[^3 H]GABA], in test [2], the “effect of rB20a expression” value is on record as “did not significantly alter”.

Regarding `NC[C@H](O)c1ccc(O)c(O)c1` [(-)-norepinephrine], the inhibition at 1000 µM in test [1] was found to be 0%.

As to `NCC(=O)O` [glycine], the inhibition at 1000 µM in test [1] is 100%. Further, the Km in test [3] is 95 µM; in test [4] it was 50 µM.

Consider `[3H][C@](O)(CN)c1ccc(O)c(O)c1` [[^3 H]norepinephrine], for which, in test [2], the “effect of rB20a expression” value is listed as “did not significantly alter”.

With `NCCc1ccc(O)c(O)c1` [[^3 H]dopamine], the “effect of rB20a expression” value in test [2] is “did not significantly alter”.

As for `C[C@H](N)C(=O)O` [L-alanine], the inhibition at 1000 µM in test [1] amounted to 2%.

As for `N[C@@H](Cc1ccc(O)cc1)C(=O)O` [[^3 H]tyrosine], the “effect of rB20a expression” value in test [2] is given as “did not significantly alter”.

Turning to `NCCc1ccc(O)c(O)c1` [dopamine], the inhibition at 1000 µM in test [1] came to 0%.

Turning to `N[C@@H](CO)C(=O)O` [L-serine], in test [1], the inhibition at 1000 µM came out at 4%. Moreover, the “% displacement of specific” value in test [1] (inhibitor 1 mM) is recorded as “Neither α-(methylamino) isobutyric acid (1 mM), a substrate for system A, nor L-serine (1 mM), a substrate for system ASC, significantly competed”.

Consider `COC(=O)CN` [glycine methyl ester], for which, in test [1], the inhibition at 10 µM came out at 0%, the inhibition at 100 µM was 0% and the inhibition at 1000 µM stood at 42%. Also, the “% displacement of specific” value in test [1] (inhibitor 10 μM) was “no inhibition”. Besides, in test [1] (inhibitor 100 μM), the “% displacement of specific” value is “no inhibition”.

In the case of `CNCC(=O)O` [sarcosine, N-methylglycine], in test [1], the inhibition at 10 µM stood at 23%, the inhibition at 100 µM stood at 64% and the inhibition at 1000 µM is 100%. For the same molecule, the IC50 in test [1] (estimated from inhibition at three concentrations) was ~50 µM.

Regarding `CCOC(=O)CN` [glycine ethyl ester], in test [1], the inhibition at 10 µM turned out to be 0%, the inhibition at 100 µM is 0% and the inhibition at 1000 µM is 32%. In addition, the “% displacement of specific” value in test [1] (inhibitor 10 μM) was “no inhibition”. Besides, the “% displacement of specific” value in test [1] (inhibitor 100 μM) was “no inhibition”.

In general, Km refers to the concentration of substrate that gives half-maximal velocity. A word on the IC50: it is the concentration that gives 50% inhibition.

These data come from patent publication US5756348A (Synaptic Pharmaceutical Corporation, priority 1994, dated 1998).
